This note sets out measurements from article PMC5735085, “A 1-phytase type III effector interferes with plant hormone signaling” (Nature Communications, 2017).

This test concerns the target T1, HopAO1 (Pseudomonas syringae group genomosp. 3, UniProt Q79LY0).
T1 construct: gene hopD2; full-length, N-terminal 6xHis (pMCSG57-hopAO1, DNASU), E. coli BL21-CodonPlus(DE3)-RIL
In words: in vitro phytate degradation. In kind it is biochemical.

T1 sequence (Q79LY0 whole entry): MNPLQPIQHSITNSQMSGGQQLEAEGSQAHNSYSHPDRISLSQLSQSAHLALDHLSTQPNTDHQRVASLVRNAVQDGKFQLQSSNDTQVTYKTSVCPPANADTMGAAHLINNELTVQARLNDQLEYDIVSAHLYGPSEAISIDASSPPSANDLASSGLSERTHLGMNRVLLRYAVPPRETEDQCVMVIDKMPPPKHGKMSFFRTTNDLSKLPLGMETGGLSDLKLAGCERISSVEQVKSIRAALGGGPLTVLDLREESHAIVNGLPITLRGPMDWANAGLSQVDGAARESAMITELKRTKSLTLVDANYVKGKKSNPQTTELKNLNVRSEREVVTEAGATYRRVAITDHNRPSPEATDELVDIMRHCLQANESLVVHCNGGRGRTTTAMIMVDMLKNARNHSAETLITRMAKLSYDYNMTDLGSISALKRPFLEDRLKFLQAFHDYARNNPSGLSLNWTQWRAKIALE

Take `O=P(O)(O)O[C@H]1[C@H](OP(=O)(O)O)[C@@H](OP(=O)(O)O)[C@H](OP(=O)(O)O)[C@@H](OP(=O)(O)O)[C@H]1OP(=O)(O)O` [InsP6]: the “in vitro phytate degradation” value is reported as “HopAO1 degraded phytate in vitro but, in contrast to XopH, to lower phosphorylated”.
